Data on 8 compounds can be found in patent US20050245527A1, “Nitrogen containing heterocyclic compounds and medicines containing the same” (priority 2002, published 2005).

One data set deals with anesthetized dogs. The experiment in a line: Evaluation of cardiovascular dynamics and electrocardiogram in anesthetized dogs. The conditions noted are these: single administration; for HR / LVdP/dt / PQ interval / QRS interval / QTc interval / mAP: percent change vs value prior to administration; for effects on the cardiovascular system: summary of Tables 4 to 8. The format is in vivo, dog. The text has this: <Evaluation of Cardiovascular Dynamics and Electrocardiogram in Anesthetized Dogs> Method Anesthetized dogs were used for the experiment. After isolating the […], a microchip pressure transducer catheter was inserted therein, and the tip was situated near the aortic orifice and in the left ventricle, for measurement of the arterial pressure (AP) and left ventricular pressure (LVP). The LVP was differentiated using a differentiation unit, and the maximum value of the first derivative of the left ventricular pressure ([…] used as the index of the […] contractility. The heart rate (HR) was measured using an instantaneous heart rate counter, with the LVP waveforms as the trigger. A needle electrode was fixed to the right anterior limb and left and right posterior limbs, and a standard II-lead electrocardiogram was taken. The parameters were recorded on a recording sheet. The test substance was administered through the venous catheter inserted in the femoral vein. Administration of Test Substance and Recording Single Administration: The test substance was administered through the catheter for 1 minute. The electrocardiogram was recorded at 2 minutes after administration, and the change in the cardiovascular dynamic was recorded continuously for 10 minutes after the administration. After 10 minutes, the dose was increased and the recording was repeated. Continuous Intravenous Infusion: The test substance was administered through the catheter for a period of one minute, and then a sustained dose was administered by continuous intravenous infusion. The electrocardiogram was recorded at the 5 and 10 minute points, and the change in cardiovascular dynamic was recorded continuously for 10 minutes from the start of administration. After 10 minutes, the dose was increased and the recording was repeated. Analysis The HR, mean arterial pressure (mAP), LVdP/dtmax and electrocardiogram parameters (RR interval, PQ interval, QRS interval, QT interval) were read from the recording sheet. The QT interval was heart rate-corrected and represented as the QTc interval.

The test system of data set [1] is left saphenous nerve of rats (ectopic firing). Kind of data set: Inhibition of ectopic firing. The format is in vivo. The conditions noted are these: Rattus norvegicus, iv; rats with cut left saphenous nerve, urethane anesthesia, compound via catheter in right cervical vein, number of firings in 10 seconds; read-out: Inhibition of ectopic firing (ID50). In short, it runs like this: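 Rat left saphenous nerve transected near the knee (~3 mm excised); recorded more than a week later under urethane (1 g/kg) anesthesia. Compound given via right cervical vein catheter. Ectopic firing recorded with platinum hook electrode, scored as number of firings in 10 seconds.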

The subject of the next data set is sodium channels. Format: cell-based. The conditions noted are these: read-out: IC50 (μM), sodium channel-inhibiting activity; rat fetal cultured hippocampal neurons, SBFI fluorescence in the presence of 4-aminopyridine, 5 minutes after addition, 1 μM tetrodotoxin = 100%.

SMILES strings stand for the structures.

On to `CN(C)CCC=C1c2ccccc2CCc2ccccc21` [Amitriptyline], for which, in the data set on anesthetized dogs (dose 0.3 mg/kg weight), the HR is reported as −2.9%, the LVdP/dt was −5.9%, the PQ interval is listed as −1.5% and the QRS interval was 0.4%. Moreover, in the data set with anesthetized dogs (dose 0.3 mg/kg weight), the QTc interval was determined as 1.9% and the mAP is recorded as −0.9%. For the same compound, in the data set on anesthetized dogs (dose 1 mg/kg weight), the HR is reported as −4.0%, the LVdP/dt was −21.7%, the PQ interval was 8.7% and the QRS interval came out at 15.4%. Besides, in the data set on anesthetized dogs (dose 1 mg/kg weight), the QTc interval came to 13.1% and the mAP is −25.4%. Also, the “effects on the cardiovascular system” value with anesthetized dogs is “exhibited effects on the cardiovascular system”.

In the case of `O=C(NCC1CCCCN1)c1cc(OCC(F)(F)F)ccc1OCC(F)(F)F` (centres unmarked) [Flecainide], in the data set with anesthetized dogs (dose 1 mg/kg weight), the HR is given as −8.6%, the LVdP/dt was −18.2%, the PQ interval is reported as 8.8% and the QRS interval turned out to be 6.4%. Also, in the data set on anesthetized dogs (dose 1 mg/kg weight), the QTc interval worked out at 2.3% and the mAP is −14.2%. In the data set on anesthetized dogs (dose 3 mg/kg weight), the HR is recorded as −24.8%, the LVdP/dt is reported as −56.9%, the PQ interval is on record as 36.1% and the QRS interval was determined as 37.1%. Besides, in the data set on anesthetized dogs (dose 3 mg/kg weight), the QTc interval worked out at 9.3% and the mAP is reported as −42.9%. In the data set with anesthetized dogs, the “effects on the cardiovascular system” value is reported as “exhibited effects on the cardiovascular system”.

In the case of `CCN(CC)CCCN(c1ccccc1)C1Cc2ccccc2C1` [Aprindine], in the data set with anesthetized dogs (dose 2 mg/kg weight), the HR is −12.8%, the LVdP/dt is −29%, the PQ interval is reported as 14.2% and the QTc interval is 4.5%. Besides, in the data set with anesthetized dogs (dose 2 mg/kg weight), the mAP is listed as −34.7%. Also, in the data set on anesthetized dogs (dose 4 mg/kg weight), the HR is on record as −19.2%, the LVdP/dt is −47.5% and the QTc interval is −0.4%. Further, in the data set on anesthetized dogs, the PQ interval worked out at 36.8%, the mAP is −47.7% and the “effects on the cardiovascular system” value is “exhibited effects on the cardiovascular system”.

With `Cc1cccc(C)c1OCC(C)N` (centres unmarked) [Mexiletine], in data set [1], the ED50 was in the range of 1 to 3 mg/kg. Moreover, in the data set on anesthetized dogs (dose 2.2 mg/kg weight), the HR was −2.8%, the LVdP/dt is reported as −20.8%, the PQ interval stood at 0.7% and the QRS interval amounted to 1.8%. Further, in the data set with anesthetized dogs (dose 2.2 mg/kg weight), the QTc interval is on record as −3.0% and the mAP is on record as −6.2%. For the same compound, in the data set with anesthetized dogs (dose 6.6 mg/kg weight), the HR is −10.6%, the LVdP/dt is recorded as −47.8%, the PQ interval came to 3.4% and the QRS interval was 6.3%. In addition, in the data set on anesthetized dogs (dose 6.6 mg/kg weight), the QTc interval is given as −4.6% and the mAP is listed as −44.2%. The “effects on the cardiovascular system” value in the data set with anesthetized dogs is “exhibited effects on the cardiovascular system”.

Consider `Cc1cccc(C)c1NC(=O)CC12CCCN1CCC2` [Pilsicainide], for which, in the data set with anesthetized dogs (dose 1 mg/kg weight), the HR is −1.0%, the LVdP/dt is on record as −20.6%, the PQ interval stood at 17.4% and the QTc interval was found to be 4.6%. Also, the mAP in the data set on anesthetized dogs (dose 1 mg/kg weight) is reported as −3.2%. Further, in the data set on anesthetized dogs (dose 3 mg/kg weight), the HR is recorded as −5.0%, the LVdP/dt is −31.7%, the PQ interval was 55.1% and the QTc interval is given as 5.3%. In addition, the mAP with anesthetized dogs (dose 3 mg/kg weight) is on record as −8.2%. In the data set with anesthetized dogs, the “effects on the cardiovascular system” value is listed as “exhibited effects on the cardiovascular system”.

By IC50 is commonly meant the point on the concentration scale where inhibition reaches its midpoint. For `O=c1[nH]ccnc1CN1CCC(/C=C/c2cccc(F)c2)CC1` [Example 176, (E)-3-[4-[2-(3-Fluorophenyl)vinyl]piperidino]methyl-1H-pyrazin-2-one], the ED50 in data set [1] is 0.5 to 1 mg/kg. Also, in the data set with sodium channels, the IC50 was determined as 5.4 µM.

In the case of `O=c1[nH]cc(Cl)cc1CN1CCC(O)(COc2ccccc2F)CC1` [Example 254, 5-Chloro-3-[4-hydroxy-4-(2-fluorophenoxymethyl)piperidino]methyl-1H-pyridin-2-one], the ED50 in data set [1] was in the range of 0.5 to 1 mg/kg. Besides, the 50% inhibitory concentration (IC50) in the data set on sodium channels is 8.9 µM.

As to `O=C(Cc1ccccc1Cl)C1CCN(Cc2ncc[nH]c2=O)CC1` [Example 183, 3-[4-[2-(2-Chlorophenyl)acetyl]piperidino]methyl-1H-pyrazin-2-one], the ED50 in data set [1] was < 0.5 mg/kg. Also, in the data set on sodium channels, the IC50 came to 2.6 µM.
